{
  "source": "patent US6803466B1",
  "about": "“HIV/FIV protease inhibitors having a small P3 residue” (The Scripps Research Institute, priority 1997, dated 2004)",
  "assay_type_in_all_cases": "cell-based",
  "key": {"[1]": {"system": "HIV WEAU-1.6 in MT-2 cells", "assay": "microbe, parasite or virus in culture", "protocol": "(§1) The results from tissue culture assays against SIV (FIG. 14) and HIV (FIG. 14) were equally encouraging. […] The effectiveness of compound 1200 against HIV was measured by determining the percentage of viable cells remaining in culture over time in the presence and absence of drug (FIG. 14). In the control, HIV caused formation of multinucleated syncytia and 100% cell death by 9 days post infection. However, the cells cultured with 1 μg/ml (1.1 μM) or 5 μg/ml (5.5 μM) of inhibitor 1200 remained 100% viable after 1 month, identical to results obtained in the absence of virus infection. To test for virus in these cultures, supernatants were removed and added to 1×10^5 uninfected MT-2 cells after a 1:5 dilution with fresh CM. […] In contrast, when 2×10^5 infected MT-2 cells that had been treated with compound 1200 for two weeks were removed and replated in fresh medium with or without compound 1200 only MT-2 cells cultured in the absence of compound 1200 were dead within 4 days (data not shown). […] Cultures are being carried continuously in the presence of compound 12 to look for resistance development. Tests are also underway to determine the level of efficacy of the compound against a defined panel of drug-resistant HIVs.\nWEAU-1.6, a kind gift of George Shaw, University of Alabama (^18), a CXCR4 utilizing isolate, was used for all studies. 2×10^5 MT-2 cells in 0.1 ml were infected for 4 hr, at 37° C., using WEAU-1.6 at 25 TCID50. Before establishing cultures for inhibitor assessment infected cells were washed 3 times with complete medium (CM), which was RPMI-1640 supplemented with 10% FBS, […], 200 mM L-glutamine, and […] of gentamicin sulfate, to remove any unbound virus. For inhibitor assessment cultures were established in duplicate or triplicate using 5×10^4 infected cells and 1×10^5 uninfected cells in a total volume of 1.5 mls in Costar 6 well-plates. Once cultures were established they were split 1:4 every 3 days, and given fresh CM. Compound 12 (from a 10 mg/ml stock in DMSO) was added at […] at initiation of the culture and after each split. For testiing of the antiviral efficacy of compound 1200 in MT-2 were assessed every day using a Olympus (model) inverted microscope equipped with phase contrast objectives. When MT-2 cells are infected with WEAU-1.6 they form syncytia and die with in 24 hours, events easily discernible visually. A total of 200 cells were counted in each well, and when syncytia were noted, cells were removed and tested for viability by using trypan-blue. Results are expressed as the average of viable cells."}, "MT-2 cells": {"system": "MT-2 cells", "assay": "Toxicity to host cells of the HIV assay", "protocol": "The results from tissue culture assays against SIV (FIG. 14) and HIV (FIG. 14) were equally encouraging. […] The effectiveness of compound 1200 against HIV was measured by determining the percentage of viable cells remaining in culture over time in the presence and absence of drug (FIG. 14). In the control, HIV caused formation of multinucleated syncytia and 100% cell death by 9 days post infection. However, the cells cultured with 1 μg/ml (1.1 μM) or 5 μg/ml (5.5 μM) of inhibitor 1200 remained 100% viable after 1 month, identical to results obtained in the absence of virus infection. To test for virus in these cultures, supernatants were removed and added to 1×10^5 uninfected MT-2 cells after a 1:5 dilution with fresh CM. […]\nWEAU-1.6, a kind gift of George Shaw, University of Alabama (^18), a CXCR4 utilizing isolate, was used for all studies. […] For testiing of the antiviral efficacy of compound 1200 in MT-2 were assessed every day using a Olympus (model) inverted microscope equipped with phase contrast objectives. […] A total of 200 cells were counted in each well, and when syncytia were noted, cells were removed and tested for viability by using trypan-blue. Results are expressed as the average of viable cells."}, "wild type HIV PR": {"system": "wild type HIV PR", "assay": "Cell culture IC90, wild type", "conditions": "Human immunodeficiency virus 1, read-out: IC90 against the wild type HIV PR"}, "[2]": {"system": "SIVmac251 in 174×CEM cells", "assay": "Ex vivo inhibitor analysis against SIV, p27 antigen ELISA", "protocol": "as §1, with “HIVs. […]” for “HIVs.”"}, "[3]": {"conditions": "Human immunodeficiency virus 1, MT2, read-out: viable cells remaining in culture"}},
  "data": [
    {"compound": "CC(C)[C@H](NC(=O)[C@H](C)NC(=O)OCc1ccccc1)C(=O)N[C@@H](Cc1ccccc1)[C@@H](O)[C@H](O)[C@H](Cc1ccccc1)NC(=O)[C@@H](NC(=O)[C@H](C)NC(=O)OCc1ccccc1)C(C)C", "note": "[Compound 1b]", "values": [
      {"measurement": "inhibition of HIV infection in tissue culture (in words)", "setting": "[1]", "value": "strongly inhibits"},
      {"measurement": "free virus in supernatants, transfer to uninfected MT-2 cells", "setting": "[1]; 1:5 dilution, after 3 weeks", "value": "remained uninfected"},
      {"measurement": "viability at 1.1 µM", "setting": "[1]; [3]", "value": 100, "unit": "%"},
      {"measurement": "viability at 5.5 µM", "setting": "[1]; [3]", "value": 100, "unit": "%"},
      {"measurement": "toxicity to host cells", "setting": "MT-2 cells", "value": "minimal toxicity"},
      {"measurement": "IC90", "setting": "wild type HIV PR", "value": 0.1, "unit": "µM"},
      {"measurement": "inhibition of SIV infection in tissue culture (in words)", "setting": "[2]", "value": "strongly inhibits"},
      {"measurement": "SIV virus expression, p27 antigen in culture supernatant", "setting": "[2]; 1 μg/ml", "value": "near background"}
    ]}
  ]
}
